Data as given in ChEMBL document CHEMBL3616463, “Differential influence of 7 cations on 16 non-competitive NMDA receptor blockers” (Bioorg Med Chem Lett, 2015).

Biological target: Glutamate NMDA receptor
Type: cell membranes, Rattus norvegicus, Wistar, Brain, Membrane
Description: Displacement of [3H]MK-801 from NMDA receptor in Wistar rat brain membranes by scintillation counting analysis

SMILES | IC50 [µM]
NCCCCCCCCc1ccc(CCCCN)s1 | 0.43
NCCOC(c1ccccc1)c1ccccc1 | 5.48
N=C(N)c1ccc(N2CCCN(c3ccc(C(=N)N)cc3)CC2)cc1 | 0.35
C[C@@H](CN)C(c1cccc(F)c1)c1cccc(F)c1 | 0.11
NCCCC12CCC(c3ccccc31)c1ccccc12 | 7.44
C[C@](N)(Cc1ccccc1)c1ccccc1 | 0.78
CN[C@@]1(c2ccccc2Cl)CCCCC1=O | 2.12
NCCCCCCCCCCCCN | 8.39
NC(N)=NCCCCN=C(N)N [ARCAINE] | 6.39
CN(C)CCCN1c2ccccc2Sc2ccc(Cl)cc21 [CHLORPROMAZINE] | 21
CN[C@]1(c2ccccc2Cl)CCCCC1=O [ESKETAMINE] | 0.64
NCCCN1c2ccccc2Sc2ccc(Cl)cc21 [NOR2-CHLORPROMAZINE] | 5.79
c1ccc(C2(N3CCCCC3)CCCCC2)cc1 [PHENCYCLIDINE] | 0.11
COC(=O)[C@@H](N)Cc1c[nH]c2ccccc12 [TRYPTOPHAN METHYL ESTER] | 169
